This is an account of results in patent EP3895711A1, “CYCLOISOMALTOTETRAOSE, CYCLOISOMALTOTETRAOSE PRODUCTION ENZYME, AND PRODUCTION METHODS AND USES THEREOF” (Hayashibara Co., Ltd., priority 2018, dated 2020).

For data set [1], the system named is cycloisomaltotetraose-forming enzyme from Agreia sp. D1110 (NITE BP-02815). The data set can be described thus: Substrate specificity of cycloisomaltotetraose-forming enzyme (TLC of reaction mixtures). Note: key: - : Not formed; + : Slightly formed; ++ : Formed; +++ : Significantly formed. The format is biochemical. The note with it: substrate 1% (w/v), 20 units/g-solid of enzyme, pH 6.0, 40°C, 24 hours. An excerpt:
Substrate specificity of cycloisomaltotetraose-forming enzyme was investigated using various saccharides as substrates. Aqueous solutions containing D-glucose, maltose, isomaltose, panose, isomaltotriose, isomaltotetraose, isomaltopentaose, isomaltohexaose, isomaltoheptaose, dextran T10 (average molecular weight: 10,000, commercialized by Pharmacosmos A/s., Denmark), dextran T70 (average molecular weight: 70,000, commercialized by Pharmacosmos A/s., Denmark), or dextran T2000 (average molecular weight: 2,000,000, commercialized by Pharmacosmos A/s., Denmark) were prepared as substrate solutions. To each substrate solution, acetate buffer and calcium chloride were added to give final concentrations of 50 mM and 1 mM, respectively, and then resulting solutions were admixed with 20 units/g-solid of cycloisomaltotetraose-forming enzyme from Agreia sp. […] To examine the saccharides in each reaction mixture before and after the reaction, saccharides were separated by silica gel thin-layer chromatography (hereinafter, abbreviated as "TLC") using "[…] 60F254", a TLC aluminum plate (10 x 20 cm) and a solvent (2-propanol/1-butanol/water, volume ratio of 12:3:4) with two-times ascending method. The separated saccharides on the plate were detected by visualizing the spots with sulfate-methanol method, and the degree of forming cycloisomaltotetraose from each substrate and the products other than cycloisomaltotetraose were investigated.

For data set [2] the test system is unchanged. The data set can be described thus: Action of cycloisomaltotetraose-forming enzyme on isomaltopentaose (TLC). Type of data set: biochemical. The note with it: 1% (w/v) isomaltopentaose, 2.0 units/g-isomaltopentaose, pH 6.0, 40°C, 24 hours. The method, then:
As a part of examining the substrate specificity of cycloisomaltotetraose-forming enzyme, the action of the enzyme on isomaltopentaose was investigated. To 0.5 mL of 50 mM acetate buffer (pH 6.0) containing 1% (w/v) of isomaltopentaose (prepared in Hayashibara Co., Ltd., Okayama, Japan, purity: 98.1% by weight) and 0.006% (w/v) hinokitiol as a preservative, 2.0 units/g-isomaltopentaose of a purified cycloisomaltotetraose-forming enzyme from Agreia sp. D1110 (NITE BP-02815), obtained by the method in Experiment 6, was added, and the resulting mixture was incubated at 40°C for 24 hours and then heated at 100°C for 10 min to inactivate the enzyme. To examine the reaction products in the reaction mixture, saccharides were separated by TLC using "KIESELGEL 60", a TLC aluminum plate (10 x 20 cm) and a solvent (acetonitrile/water/ethyl acetate/1-propanol, volume ratio of 85:70:20:50) and two-times ascending method. The separated saccharides on the plate were detected by visualizing the spots with sulfate-methanol method, and the reaction products formed from isomaltopentaose were investigated.

The nature of data set [3]: Digestivity test using small intestinal mucosal enzyme. Type of data set: in vitro ADME. Particulars: rat, small intestine mucosal enzyme, 1% by weight, pH 6.0, 50 units/g-cycloisomaltotetraose, 37°C, read-out: residual rate (%) of cycloisomaltotetraose after the enzymatic reaction. The method, then:
To the substrate solution, 50 units/g-cycloisomaltotetraose, as maltose-hydrolyzing activity, of small intestine mucosal enzyme (α-glucosidase) prepared from rat small intestine acetone powder, commercialized by Sigma-Aldrich Co., was added, and the resulting mixture was incubated at 37°C for 24 hours and then heated at 100°C for 10 min to inactivate the enzyme. The amounts of cycloisomaltotetraose in the solution before and after the reaction were determined by HPLC, and the residual rate (%) of cycloisomaltotetraose after the enzymatic reaction, i.e., (the amount after the reaction/the amount before the reaction) x 100, was measured.

A short description of data set [4]: Thermal stability of cycloisomaltotetraose in aqueous solution. Type of data set: physicochemical. The note with it: 7% (w/v) aqueous solution, 120°C. The method, then: An aqueous cycloisomaltotetraose solution with a solid concentration of 7% (w/v) was prepared by dissolving the crystalline cycloisomaltotetraose preparation with a purity of 99.5% by weight, obtained in Experiment 3-1. Eight milliliters each of the aqueous solution was taken in a glass centrifuge tube with a screw cap, sealed, and then heated for 30 to 90 min at 120°C. The solutions before heating and those after heating for various times were subjected to the measurement for the degree of coloring and for the cycloisomaltotetraose purity by HPLC method. The degree of coloring was defined as the absorbance at 480 nm measured by using a 1-cm cell.

A short description of data set [5]: pH stability of cycloisomaltotetraose. Type of data set: physicochemical. Particulars: 4% (w/v), 100°C; for Degree of coloring (A480nm): 24 hours; for remaining at 24 h: read-out: Purity of cycloisomaltotetraose (% by weight). The procedure: The crystalline cycloisomaltotetraose preparation obtained in Experiment 3-1 was dissolved in various buffers to make 7 kinds of aqueous cycloisomaltotetraose solutions with a cycloisomaltotetraose concentration of 4% (w/v), and with the pH adjusted to 3 to 9. Eight milliliters each of the aqueous solution was taken into a glass centrifuge tube with a screw cap, sealed, and heated at 100°C for 24 hours. After cooling them, the measurement for the degree of coloring degree of those aqueous solution and for the cycloisomaltotetraose purity were carried out in the same manner in Experiment 16.

For the next data set, the target named is T1, α-glucosidase (Aspergillus niger, UniProt P56526).
T1 construct: purchased Amano Enzyme Co., Ltd. TRANSGLUCOSIDASE L Amano
The data set can be described thus: Preliminary test: hydrolysis by α-glucosidase. The format is biochemical. Particulars: preliminary test using a small amount of the reaction product. The method, then: (§1) The enzymatic reaction product containing Unknown Saccharide I, obtained in Experiment 1-2, was adjusted to pH 5.0, admixed with 100 U/g-solid of "TRANSGLUCOSIDASE L Amano", α-glucosidase produced by Amano Enzyme Co., Ltd., and 1,000 U/g-solid of glucoamylase commercialized by Nagase ChemteX Co., Ltd., and then reacted at 50°C for 4 days. After the reaction, the reaction was stopped by heating the reaction mixture at about 100°C for 10 min. The saccharides in the resulting reaction mixture were analyzed by analytical high-performance liquid chromatography (hereinafter, abbreviated as "analytical HPLC"). As a result, D-glucose and Unknown Saccharide I were detected at elution times of 58.7 min and 49.4 min, respectively. The saccharide composition of the reaction mixture is 30.0% (w/w) of D-glucose, 65.5% (w/w) of Unknown Saccharide I, and 4.5% (w/w) of partial dextran hydrolysates containing isomaltooligosaccharides.

For the next data set, the system named is glucoamylase. The data set is described as follows: Preliminary test: hydrolysis by glucoamylase. The note with it: preliminary test using a small amount of the reaction product. The format is biochemical. The method, then:
as §1

The nature of data set [6]: Preliminary test: alkaline treatment. The format is physicochemical. The note with it: preliminary test using a small amount of the reaction product.

T1 sequence (P56526 26-985): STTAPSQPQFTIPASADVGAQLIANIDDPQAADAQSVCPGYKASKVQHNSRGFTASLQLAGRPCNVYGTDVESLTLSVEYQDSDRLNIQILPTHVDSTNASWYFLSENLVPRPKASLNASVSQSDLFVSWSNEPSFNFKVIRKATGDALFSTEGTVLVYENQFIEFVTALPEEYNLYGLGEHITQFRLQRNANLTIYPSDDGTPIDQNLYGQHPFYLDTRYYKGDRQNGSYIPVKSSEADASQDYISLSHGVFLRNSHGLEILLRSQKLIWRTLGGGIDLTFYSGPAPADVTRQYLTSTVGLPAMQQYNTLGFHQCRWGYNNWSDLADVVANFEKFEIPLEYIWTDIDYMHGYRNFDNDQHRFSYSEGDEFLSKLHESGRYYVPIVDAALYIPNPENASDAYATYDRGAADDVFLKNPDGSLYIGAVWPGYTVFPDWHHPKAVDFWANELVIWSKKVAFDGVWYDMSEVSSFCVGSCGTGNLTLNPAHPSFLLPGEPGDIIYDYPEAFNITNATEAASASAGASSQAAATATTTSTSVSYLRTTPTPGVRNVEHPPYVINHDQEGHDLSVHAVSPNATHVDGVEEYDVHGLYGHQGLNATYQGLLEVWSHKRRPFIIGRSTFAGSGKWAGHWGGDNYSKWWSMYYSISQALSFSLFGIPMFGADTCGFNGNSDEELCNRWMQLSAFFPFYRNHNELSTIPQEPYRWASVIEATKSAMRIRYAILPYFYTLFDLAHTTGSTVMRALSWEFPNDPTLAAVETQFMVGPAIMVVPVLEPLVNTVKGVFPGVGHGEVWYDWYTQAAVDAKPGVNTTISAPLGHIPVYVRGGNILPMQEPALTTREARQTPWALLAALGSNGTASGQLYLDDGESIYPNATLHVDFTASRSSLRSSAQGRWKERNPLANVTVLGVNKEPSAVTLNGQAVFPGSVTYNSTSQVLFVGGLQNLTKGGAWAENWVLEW

In the case of `OC[C@H]1O[C@H](OC[C@H]2O[C@H](OC[C@H]3OC(O)[C@H](O)[C@@H](O)[C@@H]3O)[C@H](O)[C@@H](O)[C@@H]2O)[C@H](O)[C@@H](O)[C@@H]1O` (stereo partly drawn) [Isomaltotriose, isomaltotriose], the Formation of cycloisomaltotetraose result in data set [1] is on record as “-”.

With `OC[C@H]1O[C@H](OC[C@H]2O[C@H](OC[C@H]3O[C@H](OC[C@H]4O[C@H](OC[C@H]5O[C@H](OC[C@H]6OC(O)[C@H](O)[C@@H](O)[C@@H]6O)[C@H](O)[C@@H](O)[C@@H]5O)[C@H](O)[C@@H](O)[C@@H]4O)[C@H](O)[C@@H](O)[C@@H]3O)[C@H](O)[C@@H](O)[C@@H]2O)[C@H](O)[C@@H](O)[C@@H]1O` (stereo partly drawn) [Isomaltohexaose, isomaltohexaose], the Formation of cycloisomaltotetraose entry in data set [1] is reported as “+++”.

As to `OC[C@H]1O[C@H](O[C@H]2[C@H](O)[C@@H](O)C(O)O[C@@H]2CO)[C@H](O)[C@@H](O)[C@@H]1O` (mixture of isomers) [Maltose, maltose], the Formation of cycloisomaltotetraose entry in data set [1] was “-”.

As for `OC[C@H]1O[C@H](OC[C@H]2O[C@H](OC[C@H]3O[C@H](OC[C@H]4O[C@H](OC[C@H]5OC(O)[C@H](O)[C@@H](O)[C@@H]5O)[C@H](O)[C@@H](O)[C@@H]4O)[C@H](O)[C@@H](O)[C@@H]3O)[C@H](O)[C@@H](O)[C@@H]2O)[C@H](O)[C@@H](O)[C@@H]1O` (stereo partly drawn) [Isomaltopentaose, isomaltopentaose], the Formation of cycloisomaltotetraose entry in data set [1] is reported as “++”. Further, the “reaction products formed from isomaltopentaose” value in data set [2] is “produces cycloisomaltotetraose with isomaltotetraose, also slightly isomaltotriose, isomaltose, glucose and high molecular glucans”.

Turning to `O[C@@H]1[C@@H](O)[C@H]2OC[C@H]3O[C@H](OC[C@H]4O[C@H](OC[C@H]5O[C@H](OC[C@@H](O2)[C@H]1O)[C@H](O)[C@@H](O)[C@@H]5O)[C@H](O)[C@@H](O)[C@@H]4O)[C@H](O)[C@@H](O)[C@@H]3O` [cycloisomaltotetraose, cyclo{→6)-α-D-glucopyranosyl-(1→6)-α-D-glucopyranosyl-(1→6)-α-D-glucopyranosyl-(1→6)-α-D-glucopyranosyl-(1→}], the remaining at 24 h came to 91.6% in data set [3]; 93.5% in data set [5] (pH 3, Acetate buffer); 99.4% in data set [5] (pH 4, Acetate buffer); 99.4% in data set [5] (pH 5, Acetate buffer); 99.4% in data set [5] (pH 6, Tris-HCl buffer); 99.5% in data set [5] (pH 7, Tris-HCl buffer). For the same compound, the remaining at 24 h in data set [5] (pH 8, Tris-HCl buffer) was 99.5%; in data set [5] (pH 9, Ammonium buffer), 99.4%. The “Degree of coloring (A480nm)” value in data set [4] (heating time 0 min) is 0.000 A480nm; in data set [4] (heating time 30 min), 0.000 A480nm; in data set [4] (heating time 60 min), 0.000 A480nm; in data set [4] (heating time 90 min), 0.000 A480nm; in data set [5] (pH 3, Acetate buffer) it was 0.000 A480nm; in data set [5] (pH 4, Acetate buffer), 0.000 A480nm. The “Degree of coloring (A480nm)” value in data set [5] (pH 5, Acetate buffer) was found to be 0.000 A480nm; in data set [5] (pH 6, Tris-HCl buffer), 0.000 A480nm; in data set [5] (pH 7, Tris-HCl buffer) it was 0.000 A480nm; in data set [5] (pH 8, Tris-HCl buffer), 0.001 A480nm; in data set [5] (pH 9, Ammonium buffer) it was 0.000 A480nm. In data set [4] (heating time 0 min), the “Purity of cycloisomaltotetraose (% by weight)” value is reported as 99.5 % by weight. The remaining at 0.5 h in data set [4] (water, heating time 30 min, read-out: Purity of cycloisomaltotetraose (% by weight)) turned out to be 99.5%. In addition, the remaining at 1 h in data set [4] (water, heating time 60 min, read-out: Purity of cycloisomaltotetraose (% by weight)) came out at 99.5%. Moreover, the remaining at 1.5 h in data set [4] (water, heating time 90 min, read-out: Purity of cycloisomaltotetraose (% by weight)) was 99.5%. Further, at α-glucosidase, the “hydrolysis by α-glucosidase” value is reported as “not hydrolyzed”. The hydrolysis by glucoamylase result in the data set with glucoamylase is recorded as “not hydrolyzed”. Further, the “decomposition by alkaline treatment” value in data set [6] is reported as “not decomposed”.

For the compound `OC[C@H]1OC(O)[C@H](O)[C@@H](O)[C@@H]1O` (stereo partly drawn) [D-Glucose, D-glucose], in data set [1], the Formation of cycloisomaltotetraose entry is recorded as “-”.

For `OCC1OC(OCC2OC(OC3C(CO)OC(O)C(O)C3O)C(O)C(O)C2O)C(O)C(O)C1O` (stereo not drawn) [Panose, panose], the Formation of cycloisomaltotetraose result in data set [1] is listed as “-”.

As for `OC[C@H]1O[C@H](OC[C@H]2O[C@H](OC[C@H]3O[C@H](OC[C@H]4OC(O)[C@H](O)[C@@H](O)[C@@H]4O)[C@H](O)[C@@H](O)[C@@H]3O)[C@H](O)[C@@H](O)[C@@H]2O)[C@H](O)[C@@H](O)[C@@H]1O` (stereo partly drawn) [Isomaltotetraose, isomaltotetraose], the Formation of cycloisomaltotetraose result in data set [1] is “+”.

Turning to `OC[C@H]1O[C@H](OC[C@H]2O[C@H](OC[C@H]3O[C@H](OC[C@H]4O[C@H](OC[C@H]5O[C@H](OC[C@H]6O[C@H](OC[C@H]7OC(O)[C@H](O)[C@@H](O)[C@@H]7O)[C@H](O)[C@@H](O)[C@@H]6O)[C@H](O)[C@@H](O)[C@@H]5O)[C@H](O)[C@@H](O)[C@@H]4O)[C@H](O)[C@@H](O)[C@@H]3O)[C@H](O)[C@@H](O)[C@@H]2O)[C@H](O)[C@@H](O)[C@@H]1O` (stereo partly drawn) [Isomaltoheptaose, isomaltoheptaose], in data set [1], the Formation of cycloisomaltotetraose entry is listed as “+++”.

In the case of `OC[C@H]1O[C@H](OC[C@H]2OC(O)[C@H](O)[C@@H](O)[C@@H]2O)[C@H](O)[C@@H](O)[C@@H]1O` (stereo partly drawn) [Isomaltose, isomaltose], in data set [1], the Formation of cycloisomaltotetraose entry is on record as “-”.
